Measured values as given in PubChem BioAssay (NCI).
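Protocol summary: plate cells (96-well), add compound at 5 concentrations, incubate 48 h, interpolate endpoints linearly. TGI denotes the concentration required for complete inhibition of growth.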

What was measured:
Assay in all cases: inhibition of tumour cell growth, NCI panel, 48 h
RXF 393 renal = test system: RXF 393 renal
HCC-2998 colon = test system: HCC-2998 colon
NCI-H226 lung = test system: NCI-H226 lung
MDA-MB-231 breast = test system: MDA-MB-231 breast
DU-145 prostate = test system: DU-145 prostate
EKVX NSCLC = test system: EKVX NSCLC
NCI/ADR-RES ovarian = test system: NCI/ADR-RES ovarian
NCI-H522 lung = test system: NCI-H522 lung
HOP-92 NSCLC = test system: HOP-92 NSCLC
HT29 colon = test system: HT29 colon
K-562 leukemia = test system: K-562 leukemia
OVCAR-3 ovarian = test system: OVCAR-3 ovarian
SK-MEL-2 melanoma = test system: SK-MEL-2 melanoma
HCT-15 colon = test system: HCT-15 colon
OVCAR-8 ovarian = test system: OVCAR-8 ovarian
MALME-3M melanoma = test system: MALME-3M melanoma
SN12C renal = test system: SN12C renal
U251 CNS = test system: U251 CNS
SF-295 CNS = test system: SF-295 CNS
UO-31 renal = test system: UO-31 renal
A549 NSCLC = test system: A549 NSCLC
SK-MEL-28 melanoma = test system: SK-MEL-28 melanoma
MDA-N = test system: MDA-N
786-0 renal = test system: 786-0 renal
UACC-62 melanoma = test system: UACC-62 melanoma
T-47D breast = test system: T-47D breast
NCI-H460 lung = test system: NCI-H460 lung
HS 578T breast = test system: HS 578T breast
SF-268 CNS = test system: SF-268 CNS
UACC-257 melanoma = test system: UACC-257 melanoma
OVCAR-4 ovarian = test system: OVCAR-4 ovarian
COLO 205 colon = test system: COLO 205 colon
NCI-H23 lung = test system: NCI-H23 lung
ACHN renal = test system: ACHN renal
TK-10 renal = test system: TK-10 renal
SK-MEL-5 melanoma = test system: SK-MEL-5 melanoma
HCT-116 colon = test system: HCT-116 colon
CAKI-1 renal = test system: CAKI-1 renal
HOP-62 NSCLC = test system: HOP-62 NSCLC
SNB-75 CNS = test system: SNB-75 CNS
MCF7 breast = test system: MCF7 breast
SW-620 colon = test system: SW-620 colon
M14 melanoma = test system: M14 melanoma
RPMI-8226 leukemia = test system: RPMI-8226 leukemia
MOLT-4 leukemia = test system: MOLT-4 leukemia
PC-3 prostate = test system: PC-3 prostate
KM12 colon = test system: KM12 colon
HL-60(TB) leukemia = test system: HL-60(TB) leukemia
BT-549 breast = test system: BT-549 breast
OVCAR-5 ovarian = test system: OVCAR-5 ovarian
SK-OV-3 ovarian = test system: SK-OV-3 ovarian
IGROV1 ovarian = test system: IGROV1 ovarian
SNB-19 CNS = test system: SNB-19 CNS
MDA-MB-435 = test system: MDA-MB-435
LOX IMVI melanoma = test system: LOX IMVI melanoma
A498 renal = test system: A498 renal

Measured: TGI

CC(C)CCNc1ncnc2[nH]ncc12
> 100 µM: all assays above
